Laboratory results reported in patent US8845879B2 (priority 2010, dated 2014).
Like-named read-outs stand apart in the source and are kept apart here.

Legend:
[1] = tested on: mitochondria isolated from Saccharomyces cerevisiae; type: biochemical
[2] = tested on: immobilized mouse liver mitochondria; type: biochemical
[3] = before vs after overnight soak at 4° C. in pesticide solution, average ± standard deviation

Question: What does the source list for `O=C(O)COc1ccc(Cl)cc1Cl` [2,4-D, 2,4-Dichlorophenoxyacetic acid]?
Answer: change in peak area (ΔAh) [1]: −8.237E−05 ± 1.713E−05 C; change in peak height (Δip) [1]: −1.617E−06 ± 5.286E−07 A

Question: `CCNc1nc(Cl)nc(NC(C)C)n1` [Atrazine] was tested. Which “change in peak area (ΔAh)” value [1] did it give?
Answer: The value was −6.809E−05 ± 1.708E−05 C.

Question: What about the “change in peak height (Δip)” value [1] of the same compound?
Answer: Its value is −8.290E−07 ± 2.197E−07 A.

Question: Which results are given for `COc1ccc2nc([S@@+]([O-])Cc3ncc(C)c(OC)c3C)[nH]c2c1` [Esomeprazole]?
Answer: attenuated current [2]: 16.8±6.4%; attenuation (decrease) in current [2]: 1.7±10.3%; attenuation in metabolic energy conversion [2]: 19.9±7.6%; attenuation in metabolic energy production [2]: 58.8±11.1%

Question: Which “change in peak area (ΔAh)” value [1] does the source give for `C[n+]1ccc(-c2cc[n+](C)cc2)cc1` [Paraquat] here?
Answer: Its value is −3.690E−05 ± 1.109E−05 C.

Question: And the “change in peak height (Δip)” value [1]?
Answer: The value was −8.582E−07 ± 1.870E−07 A.

Question: `CCOP(=S)(OCC)Oc1ccc([N+](=O)[O-])cc1` [Parathion] was tested. Which “change in peak area (ΔAh)” value [1, 3] did it give?
Answer: Its value is −2.721E−05 ± 9.349E−06 C.

Question: And the “change in peak height (Δip)” value [1, 3]?
Answer: The value was −4.491E−07 ± 2.512E−07 A.

Question: Which results are given for `CC1(C)C(C=C(Cl)Cl)C1C(=O)OCc1cccc(Oc2ccccc2)c1` (stereo not drawn) [Permethrin]?
Answer: change in peak area (ΔAh) [1]: −6.597E−05 ± 1.238E−05 C; change in peak height (Δip) [1]: −1.015E−06 ± 2.065E−07 A

Question: How did the “change in current after treatment (in words)” value [2] turn out when `O=C(O)c1ccccc1O` [Salicylic acid] was run?
Answer: Its value is “not statistically significant”.

Question: And the “higher metabolic energy flux than untreated mitochondria” value [2]?
Answer: The value was 18.6±1.5%.

Question: `CC1=NS(=O)(=O)c2cc(Cl)ccc2N1` [diazoxide] was tested. Which “inhibition of mitochondrial function (in words)” value (“inhibition” below) [2] did it give?
Answer: Its value is “partial inhibition”.

Question: `CC[C@H]1/C=C/C=C/C[C@@H](C)[C@H](O)[C@@](C)(O)C(=O)[C@@H](C)[C@H](O)[C@@H](C)C(=O)[C@@H](C)[C@H](O)[C@@H](C)/C=C/C(=O)O[C@@H]2[C@H](C)[C@H](CC1)O[C@]1(CC[C@H](C)[C@H](C[C@@H](C)O)O1)[C@H]2C` [oligomycin] was tested. Which “attenuation (decrease) in current” value [2] did it give?
Answer: Its value is 36.5±3.7%.

Question: And the “attenuation in metabolic energy conversion” value [2]?
Answer: The value was 60.9±1.0%.

Question: For `C=C(C)[C@H]1Cc2c(ccc3c2O[C@@H]2COc4cc(OC)c(OC)cc4[C@@H]2C3=O)O1` [rotenone], which “inhibition” value [2] is on record?
Answer: The value was “strong inhibitory response”.

Question: With antimycin as the compound, how does the “inhibition” value [2] read?
Answer: Its value is “strong inhibitory response”.
